# Test system: 873145-292-R-J1-PDC complex spheroid viability
# Assay: Anticancer human tumor 873145-292-R-J1-PDC patient-derived renal clear cell carcinoma cell line growth inhibition [POLQ]
# Settings: for IC50: curve of first compound; for viability, T/C: stronger effect = lower value
# Method: Multicellular complex tumor spheroid response to Polymerase (POL) inhibitors (novobiocin, ART-558, RP6685) in combination with a variety of drugs and investigational agents in selected tumor cell lines
# The POL inhibitors (novobiocin, ART-558, and RP6685) were evaluated both individually and in combination with standard of care and investigational anticancer small molecules within a complex spheroid model of solid tumors. . Complex spheroids include a stromal component modeled by human endothelial cells (HUVEC) and fibroblasts modeled by human mesenchymal stem cells (MSCs). The concentration ranges selected for each drug and investigational agent were based upon clinically achievable concentrations if the clinical Cmax of the agent was known.
# Compounds. The drugs and investigational agents: novobiocin (NSC847541), ART-558 (NSC835418), RP-6685 (NSC848927), peposertib (NSC802822), ceralasertib (NSC780249), elimusertib (NSC800525), camonsertib (NSC841442), AZD-1390 (NSC803789), olaparib (NSC753686), talazoparib (NSC767125), rucaparib (NSC756644), sotorasib (NSC818433), MRTX-1133 (NSC836407), SN-38 (NSC673596), topotecan (NSC609699), epotoside (NSC141540), doxorubicin (NSC123127), gemcitabine (NSC613327), 5-fluorouracil (NSC19893), paclitaxel (NSC125973), vemurafenib (NSC761431), MSA-2 (NSC828583), SN-011 (NSC837082), adavosertib (NSC754352), prexasertib (NSC758257), carboplatin (NSC241240) and oxaliplatin (NSC266046), were obtained from the National Cancer Institute (NCI) Developmental Therapeutics Program Chemical Repository (21). The FDA-approved anticancer drug set is available from the Developmental Therapeutics Program at https://dtp.cancer.gov/organization/dscb/obtaining/. […] The stock solutions were prepared in dimethyl sulfoxide (DMSO, Sigma-Aldrich, St. Louis, MO, cat. D2650), except for the platinum compounds which were prepared in saline (Quality Biological, Gaithersburg, MD, cat. 114-055-101), at 800-fold the tested concentration and stored at -70 degrees C prior to their use. All drugs and investigational agents were tested over a range starting from a high concentration at or near the clinical Cmax and decreasing in half-log increments. If the clinical Cmax for an agent had not been determined, the highest concentration tested was 10 microM, except for SN-38, which was tested at a high concentration of 1 microM.
# Cell Culture. All cells were maintained in an incubator at 37 degrees C and 5% CO2 with 95% humidity. The PDC lines were cultured according to standard operating procedures established by the NCI PDMR (https://pdmr.cancer.gov). Table 3 of the manuscript, lists the cell lines along with the number of the three cell types plated to form the mct-spheroids and media for tumor cell growth. After thawing, all PDC lines, except 997537-175-T-J1-PDC and 415267-285-R-J2-PDC, were cultured in Matrigel-coated flasks prepared with a working solution of 1X Ham's F-12 nutrient mix, without supplementation (Thermo Fisher Scientific, cat. 11765054), 100 U/mL penicillin-streptomycin (Thermo Fisher Scientific, cat. 15140122), and 2.5% Matrigel (Corning Inc., Corning, NY, cat. 354248) for the first three passages. The two PDC lines 997537-175-T-J1-PDC and 415267-285-R-J2-PDC were cultured on uncoated flasks. The 857933-349-R-J2-PDC line was cultured in 6C/Colon 1B media containing advanced DMEM/F-12 (Thermo Fisher Scientific, cat. 12634028), 10 mM HEPES (Thermo Fisher Scientific, cat. 15630080), 1X GlutaMAX supplement (Thermo Fisher Scientific, cat. 35050061), 0.1 mg/mL primocin (InvivoGen, San Diego, CA, cat. ant-pm-2), 10% defined fetal bovine serum, heat inactivated (HyClone Laboratories Inc., Logan, UT, cat. SH30070.03HI), 50% L-WRN conditioned media (ATCC, cat. CRL-3276), 1.25 mM N-Acetyl-L-cysteine (Sigma-Aldrich, cat. A9165), 10 mM nicotinamide (Sigma-Aldrich, cat. N0636), 1X B-27 supplement (Thermo Fisher Scientific, cat. 17504044), 1X N-2 supplement (Thermo Fisher Scientific, cat. […]
# [1] = second compound 0.0316 µM, first compound 0.0316 µM
# [2] = second compound 0.0316 µM, first compound 0.1 µM
# [3] = second compound 0.0316 µM, first compound 0.316 µM
# [4] = second compound 0.0316 µM, first compound 1 µM
# [5] = second compound 0.0316 µM, first compound 3.16 µM
# [6] = second compound 0.0316 µM, first compound 10 µM
# [7] = second compound 0.1 µM, first compound 0.0316 µM
# [8] = second compound 0.1 µM, first compound 0.1 µM
# [9] = second compound 0.1 µM, first compound 0.316 µM
# [10] = second compound 0.1 µM, first compound 1 µM
# [11] = second compound 0.1 µM, first compound 3.16 µM
# [12] = second compound 0.1 µM, first compound 10 µM
# [13] = second compound 0.316 µM, first compound 0.0316 µM
# [14] = second compound 0.316 µM, first compound 0.1 µM
# [15] = second compound 0.316 µM, first compound 0.316 µM
# [16] = second compound 0.316 µM, first compound 1 µM
# [17] = second compound 0.316 µM, first compound 3.16 µM
# [18] = second compound 0.316 µM, first compound 10 µM
# [19] = second compound 1 µM, first compound 0.0316 µM
# [20] = second compound 1 µM, first compound 0.1 µM
# [21] = second compound 1 µM, first compound 0.316 µM
# [22] = second compound 1 µM, first compound 1 µM
# [23] = second compound 1 µM, first compound 3.16 µM
# [24] = second compound 1 µM, first compound 10 µM
# [25] = second compound 3.16 µM, first compound 0.0316 µM
# [26] = second compound 3.16 µM, first compound 0.1 µM
# [27] = second compound 3.16 µM, first compound 0.316 µM
# [28] = second compound 3.16 µM, first compound 1 µM
# [29] = second compound 3.16 µM, first compound 3.16 µM
# [30] = second compound 3.16 µM, first compound 10 µM
# [31] = second compound 10 µM, first compound 0.0316 µM
# [32] = second compound 10 µM, first compound 0.1 µM
# [33] = second compound 10 µM, first compound 0.316 µM
# [34] = second compound 10 µM, first compound 1 µM
# [35] = second compound 10 µM, first compound 3.16 µM
# [36] = second compound 10 µM, first compound 10 µM
# 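Also: spheroids exposed to compounds for 7 days before viability readout.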
# 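For viability, T/C in this document: luminescence signal used as surrogate for viable cell content; 100% = DMSO vehicle control viability.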
smiles,measurement,setting,value
CNCc1ccc(-c2[nH]c3cc(F)cc4c3c2CCNC4=O)cc1 + COC1C(OC(N)=O)C(O)C(Oc2ccc3c(O)c(NC(=O)c4ccc(O)c(CC=C(C)C)c4)c(=O)oc3c2C)OC1(C)C,IC50,second compound 0.0316 µM,> 10 µM
same,IC50,second compound 0.1 µM,> 10 µM
same,IC50,second compound 0.316 µM,> 10 µM
same,IC50,second compound 1 µM,> 10 µM
same,IC50,second compound 3.16 µM,> 10 µM
same,IC50,second compound 10 µM,> 10 µM
same,"viability, T/C",[1],106%
same,"viability, T/C",[2],96.8%
same,"viability, T/C",[3],102%
same,"viability, T/C",[4],96.7%
same,"viability, T/C",[5],90.7%
same,"viability, T/C",[6],91.6%
same,"viability, T/C",[7],97%
same,"viability, T/C",[8],97.8%
same,"viability, T/C",[9],88%
same,"viability, T/C",[10],95.6%
same,"viability, T/C",[11],88%
same,"viability, T/C",[12],98.3%
same,"viability, T/C",[13],94.9%
same,"viability, T/C",[14],89.4%
same,"viability, T/C",[15],95.8%
same,"viability, T/C",[16],89.2%
same,"viability, T/C",[17],96.1%
same,"viability, T/C",[18],104%
same,"viability, T/C",[19],90.4%
same,"viability, T/C",[20],98.5%
same,"viability, T/C",[21],118%
same,"viability, T/C",[22],86.7%
same,"viability, T/C",[23],95.7%
same,"viability, T/C",[24],102%
same,"viability, T/C",[25],99.5%
same,"viability, T/C",[26],95.8%
same,"viability, T/C",[27],98.4%
same,"viability, T/C",[28],92.2%
same,"viability, T/C",[29],98.1%
same,"viability, T/C",[30],96.1%
same,"viability, T/C",[31],98.5%
same,"viability, T/C",[32],101%
same,"viability, T/C",[33],92.4%
same,"viability, T/C",[34],94.7%
same,"viability, T/C",[35],98.5%
same,"viability, T/C",[36],102%
CCc1cc2c(N3CCc4c(cc(Cn5ccnc5)cc4-c4cn(C)nc4C(F)(F)F)C3=O)cc(C)nc2c(OC)n1 + Cc1cccc(N(C)C(=O)C2C(O)CCN2c2nc(C)cc(C(F)(F)F)c2C#N)c1,IC50,second compound 0.0316 µM,> 10 µM
same,IC50,second compound 0.1 µM,> 10 µM
same,IC50,second compound 0.316 µM,> 10 µM
same,IC50,second compound 1 µM,> 10 µM
same,IC50,second compound 3.16 µM,> 10 µM
same,IC50,second compound 10 µM,> 10 µM
same,"viability, T/C",[1],99.1%
same,"viability, T/C",[2],99.8%
same,"viability, T/C",[3],102%
same,"viability, T/C",[4],77.3%
same,"viability, T/C",[5],105%
same,"viability, T/C",[6],83.2%
same,"viability, T/C",[7],97.1%
same,"viability, T/C",[8],99.8%
same,"viability, T/C",[9],80.5%
same,"viability, T/C",[10],90.5%
same,"viability, T/C",[11],93.9%
same,"viability, T/C",[12],89.8%
same,"viability, T/C",[13],97.4%
same,"viability, T/C",[14],102%
same,"viability, T/C",[15],76.1%
same,"viability, T/C",[16],97.5%
same,"viability, T/C",[17],84.2%
same,"viability, T/C",[18],87.4%
same,"viability, T/C",[19],93%
same,"viability, T/C",[20],86.5%
same,"viability, T/C",[21],91.4%
same,"viability, T/C",[22],79.4%
same,"viability, T/C",[23],102%
same,"viability, T/C",[24],70.2%
same,"viability, T/C",[25],90.7%
same,"viability, T/C",[26],87.4%
same,"viability, T/C",[27],87.5%
same,"viability, T/C",[28],96.7%
same,"viability, T/C",[29],77.2%
same,"viability, T/C",[30],89.6%
same,"viability, T/C",[31],89.1%
same,"viability, T/C",[32],102%
same,"viability, T/C",[33],93.1%
same,"viability, T/C",[34],88.5%
same,"viability, T/C",[35],76.7%
same,"viability, T/C",[36],81.6%
Nc1ccn(C2OC(CO)C(O)C2(F)F)c(=O)n1 (stereo unspecified) + Cc1cccc(N(C)C(=O)C2C(O)CCN2c2nc(C)cc(C(F)(F)F)c2C#N)c1,IC50,second compound 0.0316 µM,9.95 µM
same,IC50,second compound 0.1 µM,> 10 µM
same,IC50,second compound 0.316 µM,4.94 µM
same,IC50,second compound 1 µM,> 10 µM
same,IC50,second compound 3.16 µM,5.41 µM
same,IC50,second compound 10 µM,> 10 µM
same,"viability, T/C",[1],67.6%
same,"viability, T/C",[2],58.3%
same,"viability, T/C",[3],51.4%
same,"viability, T/C",[4],53.3%
same,"viability, T/C",[5],53.5%
same,"viability, T/C",[6],52.6%
same,"viability, T/C",[7],82.3%
same,"viability, T/C",[8],68.8%
same,"viability, T/C",[9],51.8%
same,"viability, T/C",[10],59.8%
same,"viability, T/C",[11],55%
same,"viability, T/C",[12],56.1%
same,"viability, T/C",[13],62%
same,"viability, T/C",[14],63.5%
same,"viability, T/C",[15],54.6%
same,"viability, T/C",[16],58.9%
same,"viability, T/C",[17],54.9%
same,"viability, T/C",[18],43.8%
same,"viability, T/C",[19],66.9%
same,"viability, T/C",[20],52.5%
same,"viability, T/C",[21],52.3%
same,"viability, T/C",[22],49.6%
same,"viability, T/C",[23],53.1%
same,"viability, T/C",[24],50.3%
same,"viability, T/C",[25],72.3%
same,"viability, T/C",[26],63.8%
same,"viability, T/C",[27],55.4%
same,"viability, T/C",[28],55.4%
same,"viability, T/C",[29],56.1%
same,"viability, T/C",[30],45.1%
same,"viability, T/C",[31],69.2%
same,"viability, T/C",[32],63.4%
same,"viability, T/C",[33],62.9%
same,"viability, T/C",[34],58.5%
same,"viability, T/C",[35],59.7%
same,"viability, T/C",[36],58.8%

# Source: PubChem BioAssay AID1963834 (Molecular Pharmacology Branch, DTP, NCI, 2024)
